Where “and” joins values, the source holds several entries; their conditions need not be identical. Equal entries are not always repeated. Results filed as inconclusive are left out. Calls of active or inactive are those of the source. No rule for the calls is given here.
Tested on: C. albicans CaCi-8 + fluconazole, Alamar Blue growth, 48 h
Test: resistant C. albicans growth inhibition with fluconazole, dose response, CaCi-8 strain, Alamar Blue fluorescence (AID 2423)

SMILES | EC50
Nc1nc(-c2ccccc2)c(N=Nc2ccccc2Cl)s1 | 6250 nM
COc1cc(OC)cc(-c2nnc(Nc3nc4c(F)cccc4s3)o2)c1 | > 15000 nM (inactive)
CC(C)N1CCc2c(sc(NC(=O)c3nc4ccccc4s3)c2C(N)=O)C1 | 239 nM
NC1=NC(=O)C(Cc2cccc(Cl)c2Cl)S1 (stereo not given) | > 16000 nM (inactive)
O=C(NCc1ccccc1)c1sc(=S)n2c1[nH]c(=O)c1ccccc12 | 948 nM
O=C(Nc1cccc(F)c1)c1ccc2ncsc2c1 | 2350 nM
CC1CCC(C(C)C)C(OC(=O)Cn2c(-c3ccc(Br)cc3)[n+](C)c3ccccc32)C1 (stereo not given) | 534 nM and 752 nM
CCCCc1c(O)nc(SCC(=O)Nc2cccc3ccccc23)n(-c2ccccc2OC)c1=O | 7770 nM
CC(=O)Nc1ccc(N2CC(C)(C)C2=O)cc1 | > 15000 nM (inactive)
O=C(/C=C/c1cccs1)NC(=S)NNC(=O)c1ccccc1O | 8540 nM
O=C(c1ccc2c(c1)OCO2)N1CCC2(CC1)Oc1ccc(Cl)cc1C(=O)C21CC(c2cccnc2)=NO1 (stereo not given) | 438 nM
COC1=CC(=O)C(O)=C(CCCCCCC/C=C/CCCCCCCC2=C(O)C(=O)C=C(OC)C2=O)C1=O | 11900 nM
O=[N+]([O-])CC(c1ccccc1)P(=O)(c1ccccc1)c1ccccc1 (stereo not given) | 1890 nM
O=C(Nc1nc(=O)c2ccccc2s1)c1ccc(Cl)cc1 | > 15000 nM (inactive)
O=C(c1cc2c(s1)CCCCC2)N1CCN(c2ncccn2)CC1 | 135 nM
COc1ccc(C2Nc3ccccc3C(=O)N2O)cc1OC (stereo not given) | > 15000 nM (inactive)
O=[N+]([O-])c1ccc(O)c(P(=O)(c2ccccc2)c2ccccc2)c1 | > 15000 nM (inactive)
Oc1cccc(Nc2ncnc3c2oc2ccccc23)c1 | 6650 nM
O=C(CCS(=O)(=O)c1ccc(Cl)cc1)Nc1nc(-c2ccncc2)cs1 | 709 nM
Cc1ccc(-c2cc(-c3ccc(C)cc3)[n+](C)o2)cc1 | > 16000 nM (inactive)
N#C/C(=N\Nc1cccc([N+](=O)[O-])c1)C(=O)c1ccc(Br)cc1 | 5560 nM
COc1ccc(O)c(/C=N/NC(=O)c2ccc(CSc3nc(C)cc(C)n3)cc2)c1 | 1760 nM
CC(CC(=O)Nc1ncc([N+](=O)[O-])s1)c1ccccc1 (stereo not given) | 322 nM
CC(C)(C)c1ccc(OCCCC(=O)NNC(=O)c2ccccc2O)cc1 | 2560 nM
CCCCC(=O)NNC(=S)NC(=O)c1ccc(C)cc1 | 7760 nM
Oc1ccc(CN2CCN(Cc3ccccc3)CC2)c2cccnc12 | > 16000 nM (inactive)
O=Nc1c(O)n(Cc2cccc(C(F)(F)F)c2)c2ccccc12 | 932 nM
O=C(CSCc1cccc(CSCC(=O)Nc2ccccc2)n1)Nc1ccccc1 | > 15000 nM (inactive)

SMILES | EC50
CN1CCN(CC(=O)N2CCn3c4c(c5cc(C6CCCCC6)ccc53)CCCC42)CC1 (stereo not given) | 4190 nM
O=C(/C=C\c1ccc(-c2cccc([N+](=O)[O-])c2)o1)N1CCOCC1 | 3100 nM
CCOc1cc(/C=N/NC(=O)c2cccnc2)ccc1OCC(N)=O | > 15000 nM (inactive)
C[C@]12CC[C@H](O)C[C@@H]1CC[C@@H]1[C@@H]2CC[C@]2(C)C(=O)CC[C@@H]12 | 5650 nM
CCCn1nnnc1NC(=O)c1ccc2ccccc2c1 | 1660 nM
CC(=O)Nc1ncnc2c1c(-c1ccc(Cl)cc1)nn2C(C)(C)C | 1330 nM
CC(C)(C)c1ccc(Cc2n[nH]c(=S)[nH]c2=O)cc1 | 351 nM
Cc1ccc(C(=O)CC(=O)c2ccccc2C)c(O)c1 | 1900 nM
c1ccc(CSc2nnc(-c3cccs3)n2Cc2ccco2)cc1 | 4720 nM
Cc1c(CCOC(=O)CC23CC4CC(CC(C4)C2)C3)sc[n+]1Cc1ccccc1 | 10600 nM
Cc1cccc(C(=O)NNC2=C(C(=O)C(F)(F)F)CCC2)c1O | 1230 nM
CCC(C)c1ccc(O)c(NC(=S)NC(=O)c2cccnc2)c1 (stereo not given) | 878 nM
O=C(NNC(=O)c1cc2ccccc2cc1O)Nc1ccccc1F | > 16000 nM (inactive)
CCc1nnc(NC(=O)CN2CCN(c3nc(-c4ccccc4)cs3)CC2)s1 | 371 nM
Cc1ccsc1C(=O)OCC(=O)Nc1sccc1C(N)=O | 866 nM
Cc1nn(-c2ccccc2)c(C)c1C(=O)Nc1nnc(-c2ccco2)o1 | 421 nM
COC(=O)N/N=C/c1ccc(-c2cc(Cl)cc(Cl)c2)o1 | 929 nM
Cc1ccc(OCC(=O)N/N=C\c2c(C)[nH]n(-c3ccccc3)c2=O)c([N+](=O)[O-])c1 | 6600 nM
NC(=O)c1c(NC(=O)c2ccncc2)sc2c1CCCC2 | 3450 nM
COc1ccc(C(=O)C(CN2CCCC2)c2ccccc2)cc1 (stereo not given) | > 16000 nM (inactive)
CCCOc1cccc(-c2cc(C(=O)NNC(=S)NCC)c3ccccc3n2)c1 | 891 nM
Cc1ccc(NC(=O)CSc2nnc([C@@H](N)Cc3c[nH]c4ccccc34)o2)c(C)c1 | > 15000 nM (inactive)
Cc1ccc(NC(=O)CNC(=O)c2ccc(Oc3ccccc3)cc2)nc1 | 440 nM
Cc1cc([N+](=O)[O-])ccc1-c1ccc(C2Nc3ccccc3C(=O)N2O)o1 (stereo not given) | 2440 nM
c1ccc(Sc2cccc3ccccc23)c(CNC2=NCCN2)c1 | 9520 nM
CCN(CC)c1ccc(/C=N/NC(=O)CNC(=O)C2COc3ccccc3O2)c(O)c1 (stereo not given) | 1110 nM
O=C(CNc1ccc2ccccc2c1)N/N=C/c1ccc([N+](=O)[O-])o1 | 1280 nM
